Assay results as given in patent US20070259866A1, “Method of Adenovirus, HIV and HPV Prophylaxis” (priority 1999, published 2007).
“And” between values parts separate entries of the source, which are not always exact repeats. Equal values may be shown once.

Legend:
[1] = tested on: NL-HX (T cell-tropic isolate) Virus; assay: Control infections: untreated NL-HX virus added to PBMC cultures containing the final dilution of the drug; format: cell-based, Human Immunodeficiency Virus (HIV); conditions: for Control culture: # infected cells/area (~500 cells) / Control culture: Average # infected cells/area: untreated virus; for Control culture: # infected cells/area (~500 cells): single area counts
Method: After the 1 hr treatment period, the virus-drug solutions were diluted 1:1,000 with complete medium, and then mixed with an equal volume of Peripheral Blood Mononucleocyte (PBMC) cells, for a final dilution of virus and drug of 1:4,000.
The infected cultures were then incubated without any washing or other changes in media for 4 days (for the M-tropic NL-HX-ADA type) and 8 days (for the T-tropic NL-HX type). The cultures were then assayed for infection using standard fluorescent focus assays to quantitate infected cells.
Control infections were performed by adding untreated viruses at a p24 concentration of 1 ng/ml into cultures containing the final dilution of the drug. This controlled for any residual effect the diluted drug may have on the health of the PBMC culture and their ability to replicate virus.

varicella-zoster virus = assay: Inhibition of varicella-zoster virus infection in vitro; format: cell-based
Description: Compound 96 inhibited varicella-zoster virus infection >98% in vitro.

Compound: CC1=CC(C)=[N+]2CC[N+]3=C(C)C=C(C)[O][Co-4]23([n+]2cc[nH]c2C)([n+]2cc[nH]c2C)[O]1.[Br-] [Compound 96]
- toxicity or inhibition in control cultures receiving the diluted drugs ([1]; even at the highest concentration tested (5 μg/ml)): No toxicity or inhibition
- Control culture: # infected cells/area (~500 cells) ([1]; culture with final dilution of the 0.625 mg/ml (residual 0.3 μg/ml)): 11 cells/area and 10 cells/area
- Control culture: # infected cells/area (~500 cells) ([1]; culture with final dilution of the 1.25 mg/ml (residual 0.6 μg/ml)): 9 cells/area and 8 cells/area and 11 cells/area and 10 cells/area
- Control culture: # infected cells/area (~500 cells) ([1]; culture with final dilution of the 2.5 mg/ml column (residual 1.25 μg/ml)): 10 cells/area and 11 cells/area
- Control culture: # infected cells/area (~500 cells) ([1]; culture with final dilution of the 5 mg/ml column (residual 2.5 μg/ml)): 10 cells/area and 8 cells/area and 9 cells/area
- Control culture: # infected cells/area (~500 cells) ([1]; culture with final dilution of the 10 mg/ml column (residual 5 μg/ml)): 10 cells/area and 9 cells/area and 11 cells/area
- Control culture: Average # infected cells/area ([1]; final dilution of the 0.625 mg/ml column (residual 0.3 μg/ml)): 10.3 cells/area
- Control culture: Average # infected cells/area ([1]; final dilution of the 1.25 mg/ml column (residual 0.6 μg/ml)): 9.5 cells/area
- Control culture: Average # infected cells/area ([1]; final dilution of the 2.5 mg/ml column (residual 1.25 μg/ml)): 10.3 cells/area
- Control culture: Average # infected cells/area ([1]; final dilution of the 5 mg/ml column (residual 2.5 μg/ml)): 8.8 cells/area
- Control culture: Average # infected cells/area ([1]; final dilution of the 10 mg/ml column (residual 5 μg/ml)): 9.8 cells/area
- inhibited varicella-zoster virus infection (varicella-zoster virus): > 98%
